This is an account of results in US11918662B2, “Heterocyclic compounds and imaging agents for imaging huntingtin protein” (CHDI Foundation, Inc., priority 2020, dated 2024).

For the test, the target named is T1, MBP-HTT(1-89)Q46-His(6×) (“Exon1-Q46”) protein aggregates (Homo sapiens, UniProt P42858, INS38QQQQQQQQQQQQQQQQQQQQQQQQQ).
T1 construct: MBP-HTT(1-89)Q46-His(6×); His(6×) (C); made in house
T1 sequence (P42858 with tags, fused parts or gaps with the stated changes limits assumed): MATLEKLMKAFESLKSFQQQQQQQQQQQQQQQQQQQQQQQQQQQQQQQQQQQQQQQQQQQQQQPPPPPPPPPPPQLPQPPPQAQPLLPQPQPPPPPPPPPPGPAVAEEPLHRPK
Kind of test: Exon1-Q46 Radioligand Binding Assay. The note with it: displacement of 0.3 nM [3H3-methyl]-5-((5-methoxypyridin-2-yl)methoxy)-2-(pyrazin-2-yl)benzo[d]oxazole from 1 μM aggregated Exon1-Q46, 60 minutes at 37° C.; read-out: Potency Range (IC50). The procedure:
Exon1-Q46 Radioligand Binding Assay
For experiments 30 μM MBP-Exon1-Q46 was incubated with 150 μg/mL thrombin in assay buffer (150 mM NaCl, 50 mM Tris pH 8.0) and 2 mM CaCl2 for 16 hours at 37° C. Aggregated Exon1-Q46 was pelleted by centrifugation for 5 minutes at 13,000 rpm in a bench top centrifuge and re-dissolved in the same volume of assay buffer. […] For the RBA, Q46 protein aggregates and test compounds were pre-incubated in assay buffer for 20 minutes at room temperature, in 100 μL/well in a 96-well plate (pp, round bottom). Then, ligand was added in 50 μL/well and incubated for 60 minutes at 37° C. Final assay concentrations were […] test compound, 1 μM Exon1-Q46 protein (equivalent monomer concentration) and 0.3 nM ligand [^3H3-methyl]-5-((5-methoxypyridin-2-yl)methoxy)-2-(pyrazin-2-yl)benzo[d]oxazole. Samples were transferred onto GF/B filter plates and washed 2× with 200 μL PBS using a Filtermate Harvester. After drying filter plates for 1 hour at 55° C., the back of the plates were sealed with foil and 30 μL/well scintillation fluid (Packard MicroScint 40) added, incubated for 15 minutes in the dark and counted in a MicroBeta reader. […] IC50 values were determined with a sigmoidal inhibition model with four variables (top, bottom, slope, IC50) in a global fit using the normalized replicate data.
Turning to `COc1ccc(NC(=O)[C@H]2CC[C@@H]2n2c(=O)c3cccn3c3ccccc32)nc1` (racemic) [Example 17-1, (1SR,2SR)—N-(5-Methoxypyridin-2-yl)-2-{4-oxo-4H,5H-pyrrolo[1,2-a]quinoxalin-5-yl}cyclobutane-1-carboxamide], the IC50 was under 0.1 µM.

Turning to `C[C@@H]1CN(C(=O)CCCn2c(=O)c3cccn3c3ccc(F)cc32)C[C@@H](C)O1` [Example 1-1, 5-{4-[(2R,6R)-2,6-Dimethylmorpholin-4-yl]-4-oxobutyl}-7-fluoro-4H,5H-pyrrolo[1,2-a]quinoxalin-4-one], the IC50 was under 0.1 µM.

Consider `C[C@@H]1C[C@H](C)CN(C(=O)CCCn2c(=O)c3cccn3c3ccc(F)cc32)C1` [Example 1-2], for which the IC50 is under 0.1 µM.

`C[C@H]1C[C@H](C)CN(C(=O)CCCn2c(=O)c3cccn3c3ccc(F)cc32)C1` [Example 1-3]: the IC50 was under 0.1 µM.

For `C[C@H]1CN(C(=O)CCCn2c(=O)c3cccn3c3ccc(F)cc32)C[C@H](C)O1` [Example 1-4], the IC50 was under 0.1 µM.

Consider `C[C@@H]1CN(C(=O)CCCn2c(=O)c3cccn3c3ccc(F)cc32)C[C@H](C)O1` [Example 1-5], for which the half-maximal inhibitory concentration (IC50) is under 0.1 µM.

Turning to `O=C(CCCn1c(=O)c2cccn2c2ccc(F)cc21)Nc1ccccn1` [Example 1-6], the 50% inhibitory concentration (IC50) is under 0.1 µM.

As for `O=C(CCCn1c(=O)c2cccn2c2ccc(F)cc21)NCc1cccnc1` [Example 1-7], the IC50 lay in the range of 0.1 to 0.5 µM.

In the case of `O=C(CCCn1c(=O)c2cccn2c2ccc(F)cc21)N1CCc2ccccc2C1` [Example 1-8], the 50% inhibitory concentration (IC50) is under 0.1 µM.

With `O=C(CCCn1c(=O)c2cccn2c2ccc(F)cc21)Nc1ccccc1` [Example 1-9], the IC50 is under 0.1 µM.

On to `Cc1ccc(NC(=O)CCCn2c(=O)c3cccn3c3ccc(F)cc32)cc1` [Example 1-10], for which the IC50 is under 0.1 µM.

For `Cc1cccc(NC(=O)CCCn2c(=O)c3cccn3c3ccc(F)cc32)c1` [Example 1-11], the IC50 is under 0.1 µM.

Regarding `COc1ccc(NC(=O)CCCn2c(=O)c3cccn3c3ccc(F)cc32)cc1` [Example 1-12], the IC50 was under 0.1 µM.

On to `O=C(CCCn1c(=O)c2cccn2c2ccc(F)cc21)N1Cc2ccccc2C1` [Example 1-13], for which the IC50 was under 0.1 µM.

For `COc1cccc(NC(=O)CCCn2c(=O)c3cccn3c3ccc(F)cc32)c1` [Example 1-14], the IC50 is under 0.1 µM.

`O=C(CCCn1c(=O)c2cccn2c2ccc(F)cc21)NCc1ccccc1` [Example 1-15]: the IC50 is under 0.1 µM.

As for `O=C(CCCn1c(=O)c2cccn2c2ccc(F)cc21)Nc1ccncc1` [Example 1-16], the IC50 was under 0.1 µM.

Take `COc1ccccc1NC(=O)CCCn1c(=O)c2cccn2c2ccc(F)cc21` [Example 1-17]: the IC50 was under 0.1 µM.

Regarding `O=C(CCCn1c(=O)c2cccn2c2ccc(F)cc21)NCCc1cccnc1` [Example 1-18], the IC50 was under 0.1 µM.

Consider `O=C(CCCn1c(=O)c2cccn2c2ccc(F)cc21)NCC1CCCCC1` [Example 1-19], for which the IC50 is under 0.1 µM.

On to `O=C(CCCn1c(=O)c2cccn2c2ccc(F)cc21)NCCc1ccccc1` [Example 1-20], for which the IC50 was under 0.1 µM.

Regarding `Cc1ccccc1NC(=O)CCCn1c(=O)c2cccn2c2ccc(F)cc21` [Example 1-21], the IC50 is under 0.1 µM.

`O=C(CCCn1c(=O)c2cccn2c2ccc(F)cc21)Nc1cccc(Cl)c1` [Example 1-22]: the IC50 is under 0.1 µM.

As for `COc1ccc(N(C)C(=O)CCCn2c(=O)c3cccn3c3ccc(F)cc32)cc1` [Example 1-23], the half-inhibitory concentration (IC50) is under 0.1 µM.

In the case of `O=C(CCCn1c(=O)c2cccn2c2ccc(F)cc21)Nc1cccnc1` [Example 1-24], the half-inhibitory concentration (IC50) is under 0.1 µM.

Take `O=C(CCCn1c(=O)c2cccn2c2ccc(F)cc21)Nc1ccccc1Cl` [Example 1-25]: the IC50 was under 0.1 µM.

Consider `O=C(CCCn1c(=O)c2cccn2c2ccc(F)cc21)Nc1ccc(Cl)cc1` [Example 1-26], for which the IC50 was under 0.1 µM.

For `CC(C)NC(=O)CCCn1c(=O)c2cccn2c2ccc(F)cc21` [Example 1-27], the IC50 was 0.1 to 0.5 µM.

Turning to `O=C(CCCn1c(=O)c2cccn2c2ccc(F)cc21)NC1CCCC1` [Example 1-28], the IC50 was 0.1 to 0.5 µM.

Take `CN1CCN(C(=O)CCCn2c(=O)c3cccn3c3ccc(F)cc32)CC1` [Example 1-29]: the IC50 was 0.1 to 0.5 µM.

`CN(C)CCNC(=O)CCCn1c(=O)c2cccn2c2ccc(F)cc21` [Example 1-30]: the IC50 fell in the range of 0.5 to 10 µM.

`COCCNC(=O)CCCn1c(=O)c2cccn2c2ccc(F)cc21` [Example 1-31]: the IC50 fell in the range of 0.1 to 0.5 µM.

In the case of `COC1CCC(NC(=O)CCCn2c(=O)c3cccn3c3ccc(F)cc32)CC1` (centres unmarked) [Example 1-32], the IC50 lay within 0.1 to 0.5 µM.

On to `CNC(=O)CCCn1c(=O)c2cccn2c2ccc(F)cc21` [Example 1-33], for which the half-maximal inhibitory concentration (IC50) was 0.1 to 0.5 µM.

For the molecule `CCNC(=O)CCCn1c(=O)c2cccn2c2ccc(F)cc21` [Example 1-34], the IC50 was in the range of 0.1 to 0.5 µM.

`O=C(CCCn1c(=O)c2cccn2c2ccc(F)cc21)NC1CCCCC1` [Example 1-35]: the IC50 was 0.1 to 0.5 µM.

For the molecule `COC1CCN(C(=O)CCCn2c(=O)c3cccn3c3ccc(F)cc32)C1` (centres unmarked) [Example 1-36], the IC50 is under 0.1 µM.

Take `O=C(CCCn1c(=O)c2cccn2c2ccc(F)cc21)N1CCC(C(F)(F)F)CC1` [Example 1-37]: the IC50 is under 0.1 µM.

For `O=C(CCCn1c(=O)c2cccn2c2ccc(F)cc21)N1CCCC1` [Example 1-38], the half-maximal inhibitory concentration (IC50) was under 0.1 µM.

Consider `O=C(CCCn1c(=O)c2cccn2c2ccc(F)cc21)NC1CCC(C(F)(F)F)CC1` (centres unmarked) [Example 1-39], for which the IC50 is under 0.1 µM.

Regarding `CN(C)C(=O)CCCn1c(=O)c2cccn2c2ccc(F)cc21` [Example 1-40], the IC50 is under 0.1 µM.

`CN1CCN(C(=O)CCCn2c(=O)c3cccn3c3ccc(F)cc32)CC1=O` [Example 1-41]: the half-maximal inhibitory concentration (IC50) is under 0.1 µM.

As to `COC1CCCN(C(=O)CCCn2c(=O)c3cccn3c3ccc(F)cc32)C1` (centres unmarked) [Example 1-42], the IC50 was under 0.1 µM.

On to `COc1ccc(NC(=O)CCCn2c(=O)c3cccn3c3ccc(F)cc32)nc1` [Example 1-43], for which the IC50 was under 0.1 µM.

For the molecule `COc1ccnc(NC(=O)CCCn2c(=O)c3cccn3c3ccc(F)cc32)c1` [Example 1-44], the 50% inhibitory concentration (IC50) was under 0.1 µM.

For `O=C(CCCn1c(=O)c2cccn2c2ccc(F)cc21)N1CCCC(C(F)(F)F)C1` (centres unmarked) [Example 1-45], the IC50 is under 0.1 µM.

With `CC1CCC(N(C)C(=O)CCCn2c(=O)c3cccn3c3ccc(F)cc32)CC1` (centres unmarked) [Example 1-46], the IC50 was under 0.1 µM.

Turning to `C[C@@H]1CN(C(=O)CCCn2c(=O)c3cccn3c3ccc(F)cc32)C[C@@H]1C` [Example 1-47], the IC50 is under 0.1 µM.

In the case of `C[C@@H]1CN(C(=O)CCCn2c(=O)c3cccn3c3ccc(F)cc32)C[C@H]1C` [Example 1-48], the IC50 is under 0.1 µM.

Consider `C[C@@H]1CN(C(=O)CCn2c(=O)c3cccn3c3ccc(F)cc32)C[C@H]1C` [Example 1-49], for which the half-inhibitory concentration (IC50) is under 0.1 µM.

Turning to `Cc1ccc(NC(=O)CCCn2c(=O)c3cccn3c3ccncc32)cc1` [Example 2-1, 4-(7-Oxo-2,8,11-triazatricyclo[7.4.0.0^2,6]trideca-1(9),3,5,10,12-pentaen-8-yl)-N-(p-tolyl)butanamide], the IC50 was under 0.1 µM.

As to `COc1ccc(NC(=O)CCCn2c(=O)c3cccn3c3ccncc32)cc1` [Example 2-2], the IC50 was under 0.1 µM.

For the molecule `COc1cccc(NC(=O)CCCn2c(=O)c3cccn3c3ccncc32)c1` [Example 2-3], the IC50 was under 0.1 µM.

Consider `COc1ccnc(NC(=O)CCCn2c(=O)c3cccn3c3ccncc32)c1` [Example 2-4], for which the concentration for half-maximal inhibition (IC50) was under 0.1 µM.

In the case of `COc1ccc(NC(=O)CCCn2c(=O)c3cccn3c3ccncc32)nc1` [Example 2-5], the IC50 is under 0.1 µM.

In the case of `O=C(CCn1c(=O)c2cccn2c2ccc(F)cc21)N1CCCCC1` [Example 3-1, 7-Fluoro-5-[3-oxo-3-(piperidin-1-yl)propyl]-4H,5H-pyrrolo[1,2-a]quinoxalin-4-one], the IC50 is under 0.1 µM.

Consider `Cc1ccc(NC(=O)CCn2c(=O)c3cccn3c3ccc(F)cc32)cc1` [Example 3-2], for which the IC50 is under 0.1 µM.

Take `COc1ccc(NC(=O)CCn2c(=O)c3cccn3c3ccc(F)cc32)cc1` [Example 3-3]: the half-inhibitory concentration (IC50) is under 0.1 µM.

Regarding `COc1ncccc1NC(=O)CCn1c(=O)c2cccn2c2ccc(F)cc21` [Example 3-4], the IC50 is under 0.1 µM.

For the molecule `COc1cc(NC(=O)CCn2c(=O)c3cccn3c3ccc(F)cc32)ccn1` [Example 3-5], the IC50 is under 0.1 µM.

As to `COc1ccc(NC(=O)CCn2c(=O)c3cccn3c3ccc(F)cc32)nc1` [Example 3-6], the IC50 was under 0.1 µM.

Turning to `COc1cccc(NC(=O)CCn2c(=O)c3cccn3c3ccc(F)cc32)n1` [Example 3-7], the half-maximal inhibitory concentration (IC50) is under 0.1 µM.

Turning to `Cc1ccc(NC(=O)CCn2c(=O)c3cccn3c3ccc(F)cc32)cn1` [Example 3-8], the half-inhibitory concentration (IC50) was under 0.1 µM.

With `Cn1nc(NC(=O)CCn2c(=O)c3cccn3c3ccc(F)cc32)ccc1=O` [Example 3-9], the IC50 was under 0.1 µM.

Consider `COc1ccncc1NC(=O)CCn1c(=O)c2cccn2c2ccc(F)cc21` [Example 3-10], for which the IC50 was under 0.1 µM.
